Data on two compounds can be found in PubChem BioAssay AID1259407 (Chemical Carcinogenesis Research Information System (CCRIS), 2018).

The data set deals with CCRIS mutagenicity, Ames/micronucleus/aberration tests. Briefly: CCRIS mutagenicity studies.
Where [1] appears, read: Test System: AMES SALMONELLA TYPHIMURIUM, Strain/Indicator: TA98, Metabolic Activation: NONE, Method: PREINCUBATION
Setting [2] is: Test System: AMES SALMONELLA TYPHIMURIUM, Strain/Indicator: TA1535, Metabolic Activation: NONE, Method: PREINCUBATION
Where [3] appears, read: Test System: AMES SALMONELLA TYPHIMURIUM, Strain/Indicator: TA1537, Metabolic Activation: NONE, Method: PREINCUBATION

SMILES strings stand for the structures. The source made the active and inactive calls. No rule for the calls is given here.

With `OC[P+](CO)(CO)CO`, the mutagenic call (End Point: IN VITRO CHROMOSOMAL ABERRATIONS, Test System: CHO CELLS, Metabolic Activation: NONE) is “active; positive”; the mutagenic call (Test System: AMES SALMONELLA TYPHIMURIUM, Strain/Indicator: TA97, Metabolic Activation: HAMSTER, LIVER, S-9, AROCLOR 1254 (10%), Method: PREINCUBATION) is “inactive; negative”; the mutagenic call (Test System: AMES SALMONELLA TYPHIMURIUM, Strain/Indicator: TA97, Metabolic Activation: HAMSTER, LIVER, S-9, AROCLOR 1254 (30%), Method: PREINCUBATION) is “inactive; negative”; the mutagenic call (Test System: AMES SALMONELLA TYPHIMURIUM, Strain/Indicator: TA97, Metabolic Activation: NONE, Method: PREINCUBATION) was “inactive; negative”; the mutagenic call (Test System: AMES SALMONELLA TYPHIMURIUM, Strain/Indicator: TA97, Metabolic Activation: RAT, LIVER, S-9, AROCLOR 1254 (10%), Method: PREINCUBATION) is “inactive; negative”; the mutagenic call (Test System: AMES SALMONELLA TYPHIMURIUM, Strain/Indicator: TA97, Metabolic Activation: RAT, LIVER, S-9, AROCLOR 1254 (30%), Method: PREINCUBATION) is “inactive; negative”. Further, the mutagenic call by setting is: (Test System: AMES SALMONELLA TYPHIMURIUM, Strain/Indicator: TA98, Metabolic Activation: HAMSTER, LIVER, S-9, AROCLOR 1254 (10%), Method: PREINCUBATION) “inactive; negative”; (Test System: AMES SALMONELLA TYPHIMURIUM, Strain/Indicator: TA98, Metabolic Activation: HAMSTER, LIVER, S-9, AROCLOR 1254 (30%), Method: PREINCUBATION) “inactive; negative”; (Test System: AMES SALMONELLA TYPHIMURIUM, Strain/Indicator: TA98, Metabolic Activation: HAMSTER, LIVER, S-9, AROCLOR 1254, Method: PREINCUBATION) “inactive; negative”; under setting [1], “inactive; negative”; (Test System: AMES SALMONELLA TYPHIMURIUM, Strain/Indicator: TA98, Metabolic Activation: RAT, LIVER, S-9, AROCLOR 1254 (10%), Method: PREINCUBATION) “inactive; negative”; (Test System: AMES SALMONELLA TYPHIMURIUM, Strain/Indicator: TA98, Metabolic Activation: RAT, LIVER, S-9, AROCLOR 1254 (30%), Method: PREINCUBATION) “inactive; negative”. Further, the mutagenic call is “inactive; negative” (Test System: AMES SALMONELLA TYPHIMURIUM, Strain/Indicator: TA98, Metabolic Activation: RAT, LIVER, S-9, AROCLOR 1254, Method: PREINCUBATION); “inactive; negative” (Test System: AMES SALMONELLA TYPHIMURIUM, Strain/Indicator: TA100, Metabolic Activation: HAMSTER, LIVER, S-9, AROCLOR 1254 (10%), Method: PREINCUBATION); “inactive; negative” (Test System: AMES SALMONELLA TYPHIMURIUM, Strain/Indicator: TA100, Metabolic Activation: HAMSTER, LIVER, S-9, AROCLOR 1254 (30%), Method: PREINCUBATION); “inactive; negative” (Test System: AMES SALMONELLA TYPHIMURIUM, Strain/Indicator: TA100, Metabolic Activation: HAMSTER, LIVER, S-9, AROCLOR 1254, Method: PREINCUBATION); “inactive; negative” (Test System: AMES SALMONELLA TYPHIMURIUM, Strain/Indicator: TA100, Metabolic Activation: NONE, Method: PREINCUBATION); “inactive; negative” (Test System: AMES SALMONELLA TYPHIMURIUM, Strain/Indicator: TA100, Metabolic Activation: RAT, LIVER, S-9, AROCLOR 1254 (10%), Method: PREINCUBATION). For the same compound, the mutagenic call is “inactive; negative” (Test System: AMES SALMONELLA TYPHIMURIUM, Strain/Indicator: TA100, Metabolic Activation: RAT, LIVER, S-9, AROCLOR 1254 (30%), Method: PREINCUBATION); “inactive; negative” (Test System: AMES SALMONELLA TYPHIMURIUM, Strain/Indicator: TA100, Metabolic Activation: RAT, LIVER, S-9, AROCLOR 1254, Method: PREINCUBATION); “inactive; negative” (Test System: AMES SALMONELLA TYPHIMURIUM, Strain/Indicator: TA1535, Metabolic Activation: HAMSTER, LIVER, S-9, AROCLOR 1254 (10%), Method: PREINCUBATION); “inactive; negative” (Test System: AMES SALMONELLA TYPHIMURIUM, Strain/Indicator: TA1535, Metabolic Activation: HAMSTER, LIVER, S-9, AROCLOR 1254 (30%), Method: PREINCUBATION); “inactive; negative” (Test System: AMES SALMONELLA TYPHIMURIUM, Strain/Indicator: TA1535, Metabolic Activation: HAMSTER, LIVER, S-9, AROCLOR 1254, Method: PREINCUBATION); “inactive; negative” under setting [2]. The mutagenic call is, setting by setting: (Test System: AMES SALMONELLA TYPHIMURIUM, Strain/Indicator: TA1535, Metabolic Activation: RAT, LIVER, S-9, AROCLOR 1254 (10%), Method: PREINCUBATION) “inactive; negative”; (Test System: AMES SALMONELLA TYPHIMURIUM, Strain/Indicator: TA1535, Metabolic Activation: RAT, LIVER, S-9, AROCLOR 1254 (30%), Method: PREINCUBATION) “inactive; negative”; (Test System: AMES SALMONELLA TYPHIMURIUM, Strain/Indicator: TA1535, Metabolic Activation: RAT, LIVER, S-9, AROCLOR 1254, Method: PREINCUBATION) “inactive; negative”; (Test System: AMES SALMONELLA TYPHIMURIUM, Strain/Indicator: TA1537, Metabolic Activation: HAMSTER, LIVER, S-9, AROCLOR 1254 (10%), Method: PREINCUBATION) “inactive; negative”; (Test System: AMES SALMONELLA TYPHIMURIUM, Strain/Indicator: TA1537, Metabolic Activation: HAMSTER, LIVER, S-9, AROCLOR 1254 (30%), Method: PREINCUBATION) “inactive; negative”; (Test System: AMES SALMONELLA TYPHIMURIUM, Strain/Indicator: TA1537, Metabolic Activation: HAMSTER, LIVER, S-9, AROCLOR 1254, Method: PREINCUBATION) “inactive; negative”. Further, the mutagenic call runs as follows: under setting [3], “inactive; negative”; (Test System: AMES SALMONELLA TYPHIMURIUM, Strain/Indicator: TA1537, Metabolic Activation: RAT, LIVER, S-9, AROCLOR 1254 (10%), Method: PREINCUBATION) “inactive; negative”; (Test System: AMES SALMONELLA TYPHIMURIUM, Strain/Indicator: TA1537, Metabolic Activation: RAT, LIVER, S-9, AROCLOR 1254 (30%), Method: PREINCUBATION) “inactive; negative”; (Test System: AMES SALMONELLA TYPHIMURIUM, Strain/Indicator: TA1537, Metabolic Activation: RAT, LIVER, S-9, AROCLOR 1254, Method: PREINCUBATION) “inactive; negative”; (Test System: MOUSE LYMPHOMA, Strain/Indicator: L5178Y (TK+/TK-), Metabolic Activation: NONE, Method: SUSPENSION/PLATE) “active; positive”.
With `CC(C)Br`, the mutagenic call (End Point: In vitro micronucleus, Test System: Chinese Hamster Ovary (CHO-WBL) cells, Metabolic Activation: None) was “inactive; negative”; the mutagenic call under setting [1] was “inactive; negative”; the mutagenic call (Test System: AMES SALMONELLA TYPHIMURIUM, Strain/Indicator: TA98, Metabolic Activation: RAT LIVER S-9, PHENOBARBITAL AND BETA-NAPHTHOFLAVONE, Method: PREINCUBATION) is “inactive; negative”; the mutagenic call (Test System: AMES SALMONELLA TYPHIMURIUM, Strain/Indicator: TA98, Metabolic Activation: RAT, LIVER, S-9, PHENOBARBITAL AND 5,6-BENZOFLAVONE, Method: PREINCUBATION) was “inactive; negative”; the mutagenic call (Test System: AMES SALMONELLA TYPHIMURIUM, Strain/Indicator: TA100, Metabolic Activation: RAT, LIVER, S-9, PHENOBARBITAL AND 5,6-BENZOFLAVONE, Method: PREINCUBATION) was “active; positive”; the mutagenic call under setting [2] was “active; positive”. The mutagenic call (Test System: AMES SALMONELLA TYPHIMURIUM, Strain/Indicator: TA1535, Metabolic Activation: RAT LIVER S-9, PHENOBARBITAL AND BETA-NAPHTHOFLAVONE, Method: PREINCUBATION) is “active; positive”; the mutagenic call (Test System: AMES SALMONELLA TYPHIMURIUM, Strain/Indicator: TA1535, Metabolic Activation: RAT, LIVER, S-9, PHENOBARBITAL AND 5,6-BENZOFLAVONE, Method: PREINCUBATION) is “active; positive”; the mutagenic call under setting [3] was “inactive; negative”; the mutagenic call (Test System: AMES SALMONELLA TYPHIMURIUM, Strain/Indicator: TA1537, Metabolic Activation: RAT LIVER S-9, PHENOBARBITAL AND BETA-NAPHTHOFLAVONE, Method: PREINCUBATION) is “inactive; negative”; the mutagenic call (Test System: AMES SALMONELLA TYPHIMURIUM, Strain/Indicator: TA1537, Metabolic Activation: RAT, LIVER, S-9, PHENOBARBITAL AND 5,6-BENZOFLAVONE, Method: PREINCUBATION) is “inactive; negative”; the mutagenic call (Test System: E. COLI, Strain/Indicator: WP2 UVRA, Metabolic Activation: NONE, Method: PREINCUBATION) was “inactive; negative”. Also, the mutagenic call (Test System: E. COLI, Strain/Indicator: WP2 UVRA, Metabolic Activation: RAT, LIVER, S-9, PHENOBARBITAL AND 5,6-BENZOFLAVONE, Method: PREINCUBATION) is “inactive; negative”.
